Measured values as given in patent US20060089335A1, “Compositions and methods for enhancing cognitive function and synaptic plasticity” (priority 2003, published 2006).
“Also recorded” adds a separate entry of the source.

Experiments:
[1] = test system: presynaptic terminals of cultured hippocampal neurons; test: TBS-induced presynaptic plasticity measured by FM 1-43 dye uptake in hippocampal cultures; format: cell-based, rat
[2] = target: NMDA receptors (NR2B-containing) (Rattus norvegicus, UniProt P35439+Q00960); test: evoked NMDA currents ([…]), double-perforated patch; format: cell-based
Chain of NMDA receptors (NR2B-containing) (Q00960 27-1482, other chains not shown): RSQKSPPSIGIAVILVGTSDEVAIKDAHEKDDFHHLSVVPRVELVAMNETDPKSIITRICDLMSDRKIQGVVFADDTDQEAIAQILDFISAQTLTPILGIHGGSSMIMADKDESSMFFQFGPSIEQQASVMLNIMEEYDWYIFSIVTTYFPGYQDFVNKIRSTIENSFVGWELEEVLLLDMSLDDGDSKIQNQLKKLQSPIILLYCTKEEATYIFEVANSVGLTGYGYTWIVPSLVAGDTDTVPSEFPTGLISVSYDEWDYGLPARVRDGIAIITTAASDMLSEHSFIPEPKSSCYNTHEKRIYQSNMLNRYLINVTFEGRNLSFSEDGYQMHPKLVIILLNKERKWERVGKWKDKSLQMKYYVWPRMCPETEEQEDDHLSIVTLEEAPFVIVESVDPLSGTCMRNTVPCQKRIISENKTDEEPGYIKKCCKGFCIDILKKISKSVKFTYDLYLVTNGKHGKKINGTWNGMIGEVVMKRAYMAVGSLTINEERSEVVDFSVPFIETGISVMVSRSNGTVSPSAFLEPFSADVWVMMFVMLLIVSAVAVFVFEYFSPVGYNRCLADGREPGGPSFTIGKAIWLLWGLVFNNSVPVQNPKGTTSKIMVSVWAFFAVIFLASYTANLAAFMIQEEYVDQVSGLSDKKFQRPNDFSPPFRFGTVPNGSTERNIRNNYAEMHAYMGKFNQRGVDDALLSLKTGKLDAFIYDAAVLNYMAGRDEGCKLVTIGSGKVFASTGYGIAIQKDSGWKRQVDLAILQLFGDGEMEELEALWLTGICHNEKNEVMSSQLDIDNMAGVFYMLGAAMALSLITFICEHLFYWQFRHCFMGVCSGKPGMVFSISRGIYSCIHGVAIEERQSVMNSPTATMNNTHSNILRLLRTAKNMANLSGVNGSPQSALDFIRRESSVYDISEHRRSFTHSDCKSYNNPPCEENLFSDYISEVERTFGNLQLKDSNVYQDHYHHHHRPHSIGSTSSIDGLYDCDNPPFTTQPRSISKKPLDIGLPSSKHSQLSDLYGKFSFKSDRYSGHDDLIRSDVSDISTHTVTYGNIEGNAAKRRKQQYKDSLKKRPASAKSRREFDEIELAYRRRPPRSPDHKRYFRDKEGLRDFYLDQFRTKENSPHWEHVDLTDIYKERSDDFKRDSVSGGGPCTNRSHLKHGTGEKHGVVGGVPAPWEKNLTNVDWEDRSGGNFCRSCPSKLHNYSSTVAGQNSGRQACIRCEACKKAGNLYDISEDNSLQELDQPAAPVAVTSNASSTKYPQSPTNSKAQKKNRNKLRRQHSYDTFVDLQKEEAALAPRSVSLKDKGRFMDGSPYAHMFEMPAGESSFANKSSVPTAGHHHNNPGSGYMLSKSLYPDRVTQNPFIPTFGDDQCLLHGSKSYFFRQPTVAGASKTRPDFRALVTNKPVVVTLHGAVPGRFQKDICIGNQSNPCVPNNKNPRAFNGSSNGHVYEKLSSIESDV
Method: Electrophysiology. Dual whole cell perforated patch clamp recordings were made on two interconnected cultured hippocampal pyramidal neurons. Perforated patch pipettes were front-filled with a solution containing (in mM): CsOH, 127; D-gluconic acid, 127; CsCl, 4; HEPES, 10; NaCl, 8; EGTA, 0.4; pH was adjusted to 7.25 with CsOH, and then back-filled with the same solution containing […] amphotericin B (Sigma, St. Louis, Mo.). Extracellular solution contained (in mM): NaCl, 145; KCl, 3; glucose, 15; HEPES, 10; MgCl2, 0.8-1.2; CaCl2, 1.2; 0.005 glycine (Sigma), 0.05 picrotoxin (Sigma); pH adjusted to 7.4 with NaOH. MgCl2 concentration was matched to its concentration in culture medium. In experiments where effects of drugs on neuronal activity were quantified (FIG. 4D), recordings were done in culture medium (with HEPES replacing bicarbonate/CO2 to maintain pH). All experiments were performed at room temperature. For assaying synaptic connectivity, each neuron was stimulated by 1 ms step depolarization from −70 to +30 mV in voltage-clamp mode. Only neurons with monosynaptic connections were used. […] Recordings with access resistance>20 MΩ or that varied substantially were rejected from analysis.
We hypothesized that one target may be the number and properties of NMDA receptors at individual synapses.

[3] = test system: GluR1; test: quantitative Western blotting of hippocampal homogenate; format: in vivo, rat; details: baclofen 0.07 mg/kg/day in drinking water, 4 months; rats' hippocampus
Method: (§1) Quantitative Western blotting. Samples of hippocampal homogenate (10 ug/sample) were resolved on polyacrylamide gels, transferred to PVDF, and probed with anti-NR1 (Chemicon), NR2A (Upstate) or NR2B (Santa Cruz Biotech), GluR1 (Chemicon), Synapsin1 (American Qualex), or PSD-95 (Upstate) antibody followed by the appropriate secondary antibody coupled to horseradish peroxidase (1:10,000, Santa Cruz Biotech) in Tris-buffered saline (pH 7.3) containing 5% dry milk and 0.1% Tween (BioRad). Visualization of immunoreactive bands was achieved by enhanced chemiluminescence (Perkin Elmer Biosciences) and captured on autoradiography film (Kodak Scientific). Standard curves, in which the amount of protein was varied systematically, were constructed to establish that we operated within the linear range of the chemiluminescence detection method. In addition, each immunoblot was exposed to autoradiography film multiple times (average 7; minimum 5) for varying duration to make sure we operated in the linear range of the film for each experiment. Digital images, produced by scanning films on a Epson 3200 Scanner (Epson) with Epson Scan Software (Epson), were quantified using GelPro Analyzer 3.1 software. The integrated optical density (IOD) of each immunoreactive band from hippocampal samples relative to baseline measured immediately above and below the band in the same lane, and normalized by the actin or neurofilament band also in the same lane. Group data (eight animals per group) are represented as the mean+/−SEM of the IOD of samples.

[4] = test system: NR2B; test: as above; format: in vivo, rat
Method: as §1

[5] = test system: excitatory and inhibitory terminals; details: short treatment (2-24 hr)
[6] = general status of treated rats; details: chronic treatment in drinking water, 4 months

With `NCC(CC(=O)O)c1ccc(Cl)cc1` (stereo not shown) [baclofen, 4-amino-3-(4-chlorophenyl) butanoic acid] the “effect of theta-burst induction in treated cultures” value ([1]; 4-6 hours treatment, baclofen 20 μm, NBQX 1 μm, flunitrazepam 5 μm) was “Both the number of functional synapses and the probability of release increased”, the “plasticity of presynaptic terminals (S2/S1)” value ([1]; baclofen 10 μM, short term (4-6 hours) and long term (48 hours)) was “induced enhancement of plasticity for both short term (4-6 hours) and long term (48 hours) periods of time; also recorded: enhances plasticity of presynaptic terminals” and the “τdecay of EPSCNMDA, representative trace” value ([2]; baclofen-treated neurons, FIG. 7A) was 200 ms. For the same compound, the “τdecay of EPSCNMDA, average” value ([2]; baclofen-treated neurons, N=6) was 176 ± 30 ms, the “ifenprodil-sensitivity of EPSCNMDA in treated versus control cultures” value ([2]; ifenprodil 3 μM, baclofen 10 μM 6 hours or 1.2 mM Mg) was “triggered increased sensitivity of the EPSCNMDA to ifenprodil; also recorded: more sensitive to ifenprodil; also recorded: increases the sensitivity of EPSCNMDA to ifenprodil” and the GLUR1 expression level [3] was “significant enhancement; also recorded: increases expression level”. For the same compound, the NR2B expression level ([4]; baclofen 0.07 mg/kg/day in drinking water, 4 months, rats' hippocampus) was “significant enhancement; also recorded: increases expression level”, the “increase in levels of NR2B protein” value ([4]; baclofen treatment (FIG. 10)) was “approximately 60%” and the “change of synaptic density” value [5] was “No short treatment (2-24 hr, baclofen, nimodepine, NBQX, and TTX) produced a significant change of synaptic density”. For the same compound, the “general status of the rats (body weight, mobility)” value [6] was “did not observe any significant change in the general status”.
